Data on two molecules can be found in ChEMBL document CHEMBL4507319 (2021).

Test [1] has as its target ALK tyrosine kinase receptor (Homo sapiens) (UniProt Q9UM73). The following applies: Compound concentration 1000.0 nM.
For test [2], the target named is T1, Homeodomain-interacting protein kinase 4 (Homo sapiens) (UniProt Q8NE63).
T1 sequence (whole entry): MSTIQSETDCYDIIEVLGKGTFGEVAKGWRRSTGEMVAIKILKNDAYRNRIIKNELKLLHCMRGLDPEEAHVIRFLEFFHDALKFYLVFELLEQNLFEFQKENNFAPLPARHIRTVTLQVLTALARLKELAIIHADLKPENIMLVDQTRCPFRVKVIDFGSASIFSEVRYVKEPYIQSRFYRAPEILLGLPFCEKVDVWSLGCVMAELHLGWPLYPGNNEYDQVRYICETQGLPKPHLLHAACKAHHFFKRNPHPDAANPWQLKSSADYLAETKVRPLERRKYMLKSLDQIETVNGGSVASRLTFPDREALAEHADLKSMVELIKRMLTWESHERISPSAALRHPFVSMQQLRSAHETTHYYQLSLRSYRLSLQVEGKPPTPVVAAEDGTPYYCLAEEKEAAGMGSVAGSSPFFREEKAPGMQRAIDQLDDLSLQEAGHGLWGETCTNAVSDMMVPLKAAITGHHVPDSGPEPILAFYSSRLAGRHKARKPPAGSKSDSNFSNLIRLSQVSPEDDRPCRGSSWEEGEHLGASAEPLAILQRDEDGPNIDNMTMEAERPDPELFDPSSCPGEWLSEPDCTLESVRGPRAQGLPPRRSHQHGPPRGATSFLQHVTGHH
The following applies: Compound concentration 1000.0 nM.

Test [3] deals with Hormonally up-regulated neu tumor-associated kinase (Homo sapiens) (UniProt P57058). The following applies: Compound concentration 1000.0 nM.
For test [4], the target named is Wee1-like protein kinase (Homo sapiens) (UniProt P30291). To be noted: Compound concentration 1000.0 nM.
In test [5] the target is T2, Tyrosine-protein kinase Mer (Homo sapiens) (UniProt Q12866).
T2 sequence (whole entry): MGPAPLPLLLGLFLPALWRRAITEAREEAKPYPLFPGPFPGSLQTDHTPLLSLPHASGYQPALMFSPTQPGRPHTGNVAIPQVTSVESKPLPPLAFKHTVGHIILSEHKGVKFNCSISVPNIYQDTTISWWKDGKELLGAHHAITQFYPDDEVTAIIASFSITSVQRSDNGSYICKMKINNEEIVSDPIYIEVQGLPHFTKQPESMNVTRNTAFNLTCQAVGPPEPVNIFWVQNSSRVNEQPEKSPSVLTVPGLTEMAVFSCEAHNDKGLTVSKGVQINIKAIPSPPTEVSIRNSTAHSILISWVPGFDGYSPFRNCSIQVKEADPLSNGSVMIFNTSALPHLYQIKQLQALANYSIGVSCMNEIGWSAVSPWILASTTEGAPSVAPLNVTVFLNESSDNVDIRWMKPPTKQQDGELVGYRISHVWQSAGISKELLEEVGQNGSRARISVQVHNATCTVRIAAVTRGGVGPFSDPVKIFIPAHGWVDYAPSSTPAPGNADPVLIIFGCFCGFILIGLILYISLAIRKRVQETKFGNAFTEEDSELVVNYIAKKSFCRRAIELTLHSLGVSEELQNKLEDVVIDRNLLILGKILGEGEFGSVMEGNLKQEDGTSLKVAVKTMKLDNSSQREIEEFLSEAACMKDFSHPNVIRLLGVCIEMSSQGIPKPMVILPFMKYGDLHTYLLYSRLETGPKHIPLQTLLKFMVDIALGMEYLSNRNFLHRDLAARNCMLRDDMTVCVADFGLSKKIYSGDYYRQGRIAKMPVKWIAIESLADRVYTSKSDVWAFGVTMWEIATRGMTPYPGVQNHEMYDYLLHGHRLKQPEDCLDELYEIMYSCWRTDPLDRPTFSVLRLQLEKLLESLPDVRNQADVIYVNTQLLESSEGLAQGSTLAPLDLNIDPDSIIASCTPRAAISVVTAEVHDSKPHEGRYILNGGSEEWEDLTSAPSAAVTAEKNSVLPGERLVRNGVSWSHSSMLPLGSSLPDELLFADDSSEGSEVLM
The following applies: Compound concentration 1000.0 nM.

The target in test [6] is T3, Mitogen-activated protein kinase 13 (Homo sapiens) (UniProt O15264).
T3 sequence (whole entry): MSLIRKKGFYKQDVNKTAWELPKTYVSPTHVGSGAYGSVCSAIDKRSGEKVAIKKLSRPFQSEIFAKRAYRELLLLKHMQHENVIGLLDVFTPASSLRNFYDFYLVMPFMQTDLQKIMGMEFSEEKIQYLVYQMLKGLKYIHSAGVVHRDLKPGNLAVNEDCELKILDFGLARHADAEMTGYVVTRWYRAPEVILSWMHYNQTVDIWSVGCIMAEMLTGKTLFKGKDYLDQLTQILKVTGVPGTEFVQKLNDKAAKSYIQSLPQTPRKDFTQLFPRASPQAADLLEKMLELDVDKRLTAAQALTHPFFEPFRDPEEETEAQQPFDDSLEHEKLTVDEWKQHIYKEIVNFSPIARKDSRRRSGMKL
To be noted: Compound concentration 1000.0 nM.

For test [7], the system named is Phosphatidylinositol 4,5-bisphosphate 3-kinase catalytic subunit alpha isoform (Homo sapiens), P42336 [C420R]. To be noted: Compound concentration 1000.0 nM.
Test [8] concerns Epidermal growth factor receptor (Homo sapiens), P00533 [L861Q]. The following applies: Compound concentration 1000.0 nM.
Test [9] has as its target Receptor-type tyrosine-protein kinase FLT3 (Homo sapiens) (UniProt P36888). To be noted: Compound concentration 1000.0 nM.
For test [10], the target named is Tyrosine-protein kinase ABL2 (Homo sapiens) (UniProt P42684). To be noted: Compound concentration 1000.0 nM.
The target in test [11] is Homeodomain-interacting protein kinase 2 (Homo sapiens) (UniProt Q9H2X6). The following applies: Compound concentration 1000.0 nM.
Test [12] has as its system Phosphatidylinositol 4,5-bisphosphate 3-kinase catalytic subunit alpha isoform (Homo sapiens), P42336 [E542K]. To be noted: Compound concentration 1000.0 nM.
Test [13] concerns the target TGF-beta receptor type-2 (Homo sapiens) (UniProt P37173). The following applies: Compound concentration 1000.0 nM.
Test [14] concerns the target Serine/threonine-protein kinase PknB (Mycobacterium tuberculosis) (UniProt P9WI81). To be noted: Compound concentration 1000.0 nM.
Test [15] concerns the target Non-receptor tyrosine-protein kinase TYK2 (Homo sapiens) (UniProt P29597). The following applies: Compound concentration 1000.0 nM.
For test [16], the target named is Serine/threonine-protein kinase WNK4 (Homo sapiens) (UniProt Q96J92). The following applies: Compound concentration 1000.0 nM.
The target in test [17] is Protein-tyrosine kinase 6 (Homo sapiens) (UniProt Q13882). The following applies: Compound concentration 1000.0 nM.
Test [18] deals with Beta-1 adrenergic receptor (Homo sapiens) (UniProt P08588). The following applies: Compound concentration 10.0 uM.

Chain of Receptor-type tyrosine-protein kinase FLT3 (Homo sapiens) (P36888 whole entry): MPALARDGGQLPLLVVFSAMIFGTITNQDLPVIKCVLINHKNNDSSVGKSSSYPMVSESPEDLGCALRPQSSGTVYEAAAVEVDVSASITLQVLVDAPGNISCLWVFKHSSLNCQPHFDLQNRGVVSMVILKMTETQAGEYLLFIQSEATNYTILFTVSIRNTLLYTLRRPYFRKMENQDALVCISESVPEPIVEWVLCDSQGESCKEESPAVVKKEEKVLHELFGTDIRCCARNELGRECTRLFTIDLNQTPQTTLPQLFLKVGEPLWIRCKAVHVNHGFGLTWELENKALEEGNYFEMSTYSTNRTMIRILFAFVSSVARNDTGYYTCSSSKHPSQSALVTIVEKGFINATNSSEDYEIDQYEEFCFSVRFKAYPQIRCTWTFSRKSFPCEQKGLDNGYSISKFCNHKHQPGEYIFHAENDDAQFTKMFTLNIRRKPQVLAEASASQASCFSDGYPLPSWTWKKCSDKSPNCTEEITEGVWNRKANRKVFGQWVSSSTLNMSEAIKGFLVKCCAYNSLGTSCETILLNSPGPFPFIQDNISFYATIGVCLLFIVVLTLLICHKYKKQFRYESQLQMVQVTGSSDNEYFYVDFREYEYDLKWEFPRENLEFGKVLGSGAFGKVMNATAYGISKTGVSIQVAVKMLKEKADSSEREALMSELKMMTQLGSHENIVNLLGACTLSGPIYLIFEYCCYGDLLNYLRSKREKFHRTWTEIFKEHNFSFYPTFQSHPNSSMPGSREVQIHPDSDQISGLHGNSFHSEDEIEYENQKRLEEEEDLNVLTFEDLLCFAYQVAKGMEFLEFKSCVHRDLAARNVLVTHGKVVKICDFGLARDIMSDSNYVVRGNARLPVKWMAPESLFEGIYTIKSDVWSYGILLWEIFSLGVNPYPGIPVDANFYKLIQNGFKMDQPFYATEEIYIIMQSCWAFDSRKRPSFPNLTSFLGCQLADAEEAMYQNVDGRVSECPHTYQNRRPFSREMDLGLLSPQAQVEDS
Chain of Serine/threonine-protein kinase WNK4 (Homo sapiens) (Q96J92 whole entry): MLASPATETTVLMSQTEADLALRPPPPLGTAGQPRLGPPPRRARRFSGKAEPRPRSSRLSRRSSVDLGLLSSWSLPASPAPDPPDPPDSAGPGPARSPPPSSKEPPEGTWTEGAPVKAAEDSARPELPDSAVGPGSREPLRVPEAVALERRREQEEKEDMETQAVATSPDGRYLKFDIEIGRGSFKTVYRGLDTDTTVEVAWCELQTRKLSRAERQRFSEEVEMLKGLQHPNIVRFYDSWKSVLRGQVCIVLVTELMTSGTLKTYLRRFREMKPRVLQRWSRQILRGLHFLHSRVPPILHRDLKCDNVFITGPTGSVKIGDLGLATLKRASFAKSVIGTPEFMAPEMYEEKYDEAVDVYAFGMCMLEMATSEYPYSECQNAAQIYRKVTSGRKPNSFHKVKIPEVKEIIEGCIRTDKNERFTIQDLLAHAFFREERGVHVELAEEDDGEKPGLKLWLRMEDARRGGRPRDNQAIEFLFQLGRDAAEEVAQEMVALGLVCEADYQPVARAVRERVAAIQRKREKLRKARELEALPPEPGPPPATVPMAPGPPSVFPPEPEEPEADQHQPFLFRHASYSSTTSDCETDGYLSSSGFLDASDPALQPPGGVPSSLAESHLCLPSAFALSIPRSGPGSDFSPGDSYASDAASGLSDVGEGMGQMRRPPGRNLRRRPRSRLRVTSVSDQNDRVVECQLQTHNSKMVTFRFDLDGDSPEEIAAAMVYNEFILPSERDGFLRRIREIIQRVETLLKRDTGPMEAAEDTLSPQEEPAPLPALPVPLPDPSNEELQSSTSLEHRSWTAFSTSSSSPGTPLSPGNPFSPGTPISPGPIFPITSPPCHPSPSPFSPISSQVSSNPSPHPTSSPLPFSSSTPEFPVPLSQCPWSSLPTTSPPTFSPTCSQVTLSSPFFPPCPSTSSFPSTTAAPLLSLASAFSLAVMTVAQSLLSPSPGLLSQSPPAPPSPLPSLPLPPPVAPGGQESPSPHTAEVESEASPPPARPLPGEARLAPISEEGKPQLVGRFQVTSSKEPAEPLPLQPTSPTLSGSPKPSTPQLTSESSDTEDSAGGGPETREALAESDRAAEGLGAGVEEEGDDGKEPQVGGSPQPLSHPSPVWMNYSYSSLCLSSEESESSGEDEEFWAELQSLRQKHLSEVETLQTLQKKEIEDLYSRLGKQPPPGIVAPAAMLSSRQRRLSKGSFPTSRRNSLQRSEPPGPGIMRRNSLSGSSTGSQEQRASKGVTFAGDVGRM
Chain of Tyrosine-protein kinase ABL2 (Homo sapiens) (P42684 whole entry): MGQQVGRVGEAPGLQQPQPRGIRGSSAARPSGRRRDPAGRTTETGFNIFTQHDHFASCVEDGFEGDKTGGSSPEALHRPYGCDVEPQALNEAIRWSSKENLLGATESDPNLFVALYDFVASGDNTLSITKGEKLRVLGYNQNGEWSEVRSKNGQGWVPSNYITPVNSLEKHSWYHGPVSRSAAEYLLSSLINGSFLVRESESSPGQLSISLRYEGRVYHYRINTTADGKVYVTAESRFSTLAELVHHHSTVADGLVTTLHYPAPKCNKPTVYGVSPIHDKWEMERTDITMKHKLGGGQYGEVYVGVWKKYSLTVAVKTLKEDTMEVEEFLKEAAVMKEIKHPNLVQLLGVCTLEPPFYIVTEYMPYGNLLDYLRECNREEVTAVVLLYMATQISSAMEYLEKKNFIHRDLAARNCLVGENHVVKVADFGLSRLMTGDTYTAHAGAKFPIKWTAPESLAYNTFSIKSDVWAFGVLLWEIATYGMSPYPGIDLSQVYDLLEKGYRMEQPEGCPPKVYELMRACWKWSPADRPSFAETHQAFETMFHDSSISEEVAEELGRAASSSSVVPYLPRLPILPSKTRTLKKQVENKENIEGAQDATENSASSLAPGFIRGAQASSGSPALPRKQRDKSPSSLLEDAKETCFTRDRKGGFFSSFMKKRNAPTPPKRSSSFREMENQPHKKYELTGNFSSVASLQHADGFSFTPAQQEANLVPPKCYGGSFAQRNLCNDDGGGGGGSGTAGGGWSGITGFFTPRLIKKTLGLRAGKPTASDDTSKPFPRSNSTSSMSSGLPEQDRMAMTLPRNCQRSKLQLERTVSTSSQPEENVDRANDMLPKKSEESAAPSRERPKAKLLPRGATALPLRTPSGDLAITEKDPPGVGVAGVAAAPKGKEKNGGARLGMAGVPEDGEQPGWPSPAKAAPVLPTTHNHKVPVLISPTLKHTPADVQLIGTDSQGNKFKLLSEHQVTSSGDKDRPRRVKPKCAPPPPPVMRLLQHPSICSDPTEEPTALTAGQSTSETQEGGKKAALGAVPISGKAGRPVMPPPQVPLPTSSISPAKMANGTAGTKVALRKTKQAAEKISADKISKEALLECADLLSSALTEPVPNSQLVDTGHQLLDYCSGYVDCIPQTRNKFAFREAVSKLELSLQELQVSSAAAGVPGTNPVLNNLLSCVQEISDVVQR
Chain of Hormonally up-regulated neu tumor-associated kinase (Homo sapiens) (P57058 whole entry): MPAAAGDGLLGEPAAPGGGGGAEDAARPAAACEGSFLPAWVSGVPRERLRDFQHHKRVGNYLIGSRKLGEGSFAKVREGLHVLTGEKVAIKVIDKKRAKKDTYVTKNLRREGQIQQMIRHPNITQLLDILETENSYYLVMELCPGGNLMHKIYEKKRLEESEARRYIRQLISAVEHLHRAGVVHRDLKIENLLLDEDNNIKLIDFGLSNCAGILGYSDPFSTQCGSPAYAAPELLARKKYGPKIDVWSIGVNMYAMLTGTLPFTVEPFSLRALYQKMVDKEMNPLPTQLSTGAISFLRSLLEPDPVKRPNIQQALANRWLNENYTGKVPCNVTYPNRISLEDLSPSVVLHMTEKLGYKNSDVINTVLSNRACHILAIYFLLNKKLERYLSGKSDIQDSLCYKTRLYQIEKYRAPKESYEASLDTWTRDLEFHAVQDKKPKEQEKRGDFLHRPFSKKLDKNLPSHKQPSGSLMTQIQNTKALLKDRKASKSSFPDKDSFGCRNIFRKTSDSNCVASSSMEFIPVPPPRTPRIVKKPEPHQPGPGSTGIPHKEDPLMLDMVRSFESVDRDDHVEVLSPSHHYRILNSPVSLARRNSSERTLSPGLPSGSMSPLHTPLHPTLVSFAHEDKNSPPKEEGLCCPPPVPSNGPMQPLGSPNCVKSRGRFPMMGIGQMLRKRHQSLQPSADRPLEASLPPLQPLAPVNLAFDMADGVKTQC
Chain of Wee1-like protein kinase (Homo sapiens) (P30291 whole entry, looked up): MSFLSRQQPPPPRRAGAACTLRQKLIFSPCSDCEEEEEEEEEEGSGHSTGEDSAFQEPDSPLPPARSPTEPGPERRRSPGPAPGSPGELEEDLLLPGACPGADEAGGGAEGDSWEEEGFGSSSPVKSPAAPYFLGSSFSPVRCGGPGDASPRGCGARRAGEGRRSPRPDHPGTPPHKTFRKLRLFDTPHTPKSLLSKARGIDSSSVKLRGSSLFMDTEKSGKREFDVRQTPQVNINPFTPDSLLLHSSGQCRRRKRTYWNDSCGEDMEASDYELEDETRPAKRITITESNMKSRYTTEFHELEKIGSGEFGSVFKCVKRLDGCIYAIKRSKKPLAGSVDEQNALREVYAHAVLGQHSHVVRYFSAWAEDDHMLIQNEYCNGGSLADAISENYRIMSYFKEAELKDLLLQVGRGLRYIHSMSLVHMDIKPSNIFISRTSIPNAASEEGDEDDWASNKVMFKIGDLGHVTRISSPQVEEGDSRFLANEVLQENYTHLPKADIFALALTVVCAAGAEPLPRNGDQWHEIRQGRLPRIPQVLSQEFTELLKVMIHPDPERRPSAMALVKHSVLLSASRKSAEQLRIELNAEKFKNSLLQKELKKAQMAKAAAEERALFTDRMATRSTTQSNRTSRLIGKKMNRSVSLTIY

With `CCc1ccccc1C(=O)Nc1n[nH]c2c(C)c(F)c(C3C(C#N)=C(C)N(C)C(C)=C3C#N)cc12` [BAY-3827], the residual activity was 98% in test [1]; 100% in test [2]; 100% in [3]; 100% in test [4]; 80% in test [5]; 96% in test [6]. The residual activity in test [7] was 100%; in test [8] it was 43%; in [9], 16%; in test [10], 92%; in test [11], 100%; in [12] it was 54%. For the same molecule, the residual activity in test [13] was 82%; in [14], 85%; in [15], 100%; in test [16] it was 94%; in test [17], 100%. Besides, the inhibition in [18] is 1.59%.

`CC1=C(C#N)C(c2ccc3c(c2)c(NC(=O)c2ccccc2C)nn3C)C(C#N)=C(C)N1` [BAY-974]: the residual activity in [1] was 100%; in test [2], 80%; in test [3], 78%; in test [4], 100%; in test [5] it was 100%; in test [6] it was 79%. The residual activity in test [7] was 74%; in test [8], 69%; in [9], 90%; in [10], 99%; in test [11], 73%; in [12], 91%. The residual activity in [13] is 99%; in test [14], 97%; in test [15] it was 82%; in test [16], 95%; in [17], 100%. In addition, the inhibition in test [18] is -7.79%.
